In patent US8349318B2, “Use of specifically engineered enzymes to enhance the efficacy of prodrugs” (The Board of Trustees of the University of Illinois, priority 2008, dated 2013):

What was measured:
[1] = molecular target: dCK R104L/D133A (Homo sapiens, UniProt P27707, D133A/R104L); experiment: Kinetic characterization of nucleoside phosphorylation by dCK R104L/D133A; conditions: Table 9
[2] = molecular target: T1, R104Q-D133A dCK (Homo sapiens, UniProt P27707, D133A/R104Q); experiment: Kinetic assay of nucleoside phosphorylation by R104Q-D133A dCK; type: biochemical; conditions: nucleoside 200 uM
T1 construct: made in house
T1 sequence (P27707 whole entry R104Q/D133A): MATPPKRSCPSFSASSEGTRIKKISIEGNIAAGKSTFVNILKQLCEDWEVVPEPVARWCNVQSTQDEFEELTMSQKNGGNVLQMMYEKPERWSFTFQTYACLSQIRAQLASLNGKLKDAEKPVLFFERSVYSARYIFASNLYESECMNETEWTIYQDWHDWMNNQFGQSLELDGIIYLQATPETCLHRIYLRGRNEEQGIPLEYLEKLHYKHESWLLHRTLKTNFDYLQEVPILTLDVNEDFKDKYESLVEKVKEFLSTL

dCK R104L/D133A, sequence (P27707 whole entry R104L/D133A): as the sequence (P27707 whole entry R104Q/D133A) above, with Q104L counted along it

kcat, R104L/D133A [1]: 3.20 ± 0.07 s⁻¹
Km ([1]; read-out: Km, R104L/D133A): 24.3 ± 3.6 µM
kcat R104Q-D133A dCK (with 1 mM ATP as donor) [2]: 0.15 s⁻¹
Compound: Cc1cn([C@H]2C[C@H](O)[C@@H](CO)O2)c(=O)[nH]c1=O [D-dT, D-thymidine]
